Experimental data: patent US20160095843A1, “PYRAZOLOPYRROLIDINE DERIVATIVES AND THEIR USE IN THE TREATMENT OF DISEASE” (NOVARTIS AG, priority 2013, published 2016)

Legend:
[1] = tested on: MV-4-11 cells; assay: Cell growth inhibition assay (CellTiter-Glo), MV-4-11; assay type: cell-based; settings: Homo sapiens, MV4-11
Experimental: (§1) Cell Growth Inhibition Assay
(§2) The human leukemia cell lines MV-4-11, THP-1 and K-562 were employed to characterize the effect of BET inhibitors on cellular proliferation and viability. Cells were obtained from the American Type Culture Collection (ATCC) and cultured at 37° C. in a humidified 5% CO2 incubator in the following media: MV-4-11: DMEM high glucose (Animed #1-26F01-I), 10% FCS (Animed #2-01F26-I), 4 mM L-Glutamine (Animed #5-10K50), 1 mM Sodium Pyruvate (Animed # G03625P), 1× Penicillin-Streptomycin (Animed # F12478P); K-562: Iscove's MEM (Animed #1-28F16-I), 10% FCS (Animed #2-01F26-I), 4 mM L-Glutamine (Animed #5-10K50), 1× Penicillin-Streptomycin (Animed # F12478P); THP-1: RPMI-1640 (Animed #1-41F01-I), 10% FCS (Animed #2-01F26-I), 2 mM L-Glutamine (Animed #5-10K50), 10 mM HEPES (Animed #5-31F100), 1 mM Sodium Pyruvate (Animed # G03625P), 1× Penicillin-Streptomycin (Animed # F12478P). The AML lines MV-4-11 and THP-1 are very sensitive to BET inhibitors and show massive cell death upon BET inhibition (Zuber et al., Nature, 478 (2011), 524-8). Compound-mediated suppression of cell proliferation/viability was assessed by quantification of cellular ATP levels using the CellTiter-Glo (CTG) reagent (Promega). Briefly, cells were seeded in 20 μl fresh medium into 384-well plates, followed by addition of 5 μL medium containing compound dilutions at 5-fold their final intended concentration. Dose-response effects were assessed by 3-fold serial dilutions of the test compound, starting at 10 μM. Following incubation of the cells for 4 days at 37° C. and 5% CO2, the effect of inhibitors on cell viability was quantified following addition of 20 μl CTG and luminescence quantification (integration time: 100 ms) as per vendor manual, using a correspondingly equipped Tecan M200 multi-mode platereader (TECAN, Switzerland). For data analysis, the assay background value determined in wells containing medium, but no cells, was subtracted from all data points. To enable differentiation of cytotoxic from cytostatic compounds, the number of viable cells is assessed relative to that observed at the time of compound addition using a separate cell plate (day 0). The effect of a particular test compound concentration on cell proliferation/viability is expressed as percentage of the background- and day 0-corrected luminescence reading obtained for cells treated with vehicle only (DMSO, 0.1% final concentration), which is set as 100%, whereas that luminescence reading for wells containing medium is set as −100%. Compound concentrations leading to half-maximal (1050) and total growth inhibition (TGI) were determined using standard four parameter curve fitting.

[2] = tested on: THP-1 cells; assay: Cell growth inhibition assay (CellTiter-Glo), THP-1; assay type: cell-based; settings: Homo sapiens
Experimental: as §1, §2

[3] = tested on: K-562 cells; assay: Cell growth inhibition assay (CellTiter-Glo), K-562; assay type: cell-based, human; settings: for GI50: Homo sapiens, K562
Experimental: as §1, §2

| Structure (SMILES) | GI50 [1] [nM] | GI50 [2] [nM] | GI50 [3] [nM] | IC (TGI) [3] [nM] |
| --- | --- | --- | --- | --- |
| COc1ncc(-n2nc(C)c3c2C(=O)N(c2cc(Cl)c(=O)n(C)c2)C3c2ccc(Cl)cc2)c(OC)n1 (stereo not drawn) [Example 53, 5-(5-chloro-1-methyl-6-oxo-1,6-dihydropyridin-3-yl)-4-(4-chlorophenyl)-1-(2,4-dimethoxypyrimidin-5-yl)-3-methyl-4,5-dihydropyrrolo[3,4-c]pyrazol-6(1H)-one] | 249 | 374 | 953 |  |
| COc1ncc(-n2nc3c(c2C(C)C)C(c2ccc(Cl)cc2)N(c2ccc4onc(C)c4c2)C3=O)c(OC)n1 (stereo not drawn) [Example 54, 4-(4-chlorophenyl)-2-(2,4-dimethoxypyrimidin-5-yl)-3-isopropyl-5-(3-methylbenzo-[d]isoxazol-5-yl)-4,5-dihydropyrrolo[3,4-c]pyrazol-6(2H)-one] | 458 | 637 | 1530 |  |
| COc1ncc(-n2nc3c(c2C)C(c2ccc(Cl)cc2)N(c2cc(Cl)c(=O)n(C)c2)C3=O)c(OC)n1 (stereo not drawn) [Example 55, 5-(5-chloro-1-methyl-6-oxo-1,6-dihydropyridin-3-yl)-4-(4-chlorophenyl)-2-(2,4-dimethoxypyrimidin-5-yl)-3-methyl-4,5-dihydropyrrolo[3,4-c]pyrazol-6(2H)-one] | 89.1 | 231 | 400 |  |
| COc1ncc(-n2nc3c(c2C)C(c2ccc(Cl)cc2)N(c2cc(C)c(=O)n(C)c2)C3=O)c(OC)n1 (stereo not drawn) [Example 56, 4-(4-chlorophenyl)-2-(2,4-dimethoxypyrimidin-5-yl)-5-(1,5-dimethyl-6-oxo-1,6-dihydropyridin-3-yl)-3-methyl-4,5-dihydropyrrolo[3,4-c]pyrazol-6(2H)-one] | 57.4 | 70.2 | 265 |  |
| Cc1nn(C)c2c1C(c1ccc(Cl)cc1)N(c1cc(C)c(=O)n(C)c1)C2=O (stereo not drawn) [Example 57, 4-(4-chlorophenyl)-5-(1,5-dimethyl-6-oxo-1,6-dihydropyridin-3-yl)-1,3-dimethyl-4,5-dihydropyrrolo-[3,4-c]pyrazol-6(1H)-one] | 69.5 | 117 | 480 |  |
| Cc1nn(C)c2c1C(c1ccc(Cl)cc1)N(c1cc(Cl)c(=O)n(C)c1)C2=O (stereo not drawn) [Example 58, 5-(5-chloro-1-methyl-6-oxo-1,6-dihydropyridin-3-yl)-4-(4-chlorophenyl)-1,3-dimethyl-4,5-dihydropyrrolo[3,4-c]pyrazol-6(1H)-one] | 94.4 | 189 | 1140 |  |
| COc1nccc(-n2nc(C)c3c2C(=O)N(c2cc(C)c(=O)n(C)c2)C3c2ccc(Cl)cc2)n1 (stereo not drawn) [Example 59, 4-(4-chlorophenyl)-5-(1,5-dimethyl-6-oxo-1,6-dihydropyridin-3-yl)-1-(2-methoxypyrimidin-4-yl)-3-methyl-4,5-dihydropyrrolo[3,4-c]pyrazol-6(1H)-one] | 220 | 317 | 1250 |  |
| CCc1nn(-c2cnc(OC)nc2OC)c2c1C(c1ccc(Cl)cc1)N(c1cc(C)c(=O)n(C)c1)C2=O (stereo not drawn) [Example 60, 4-(4-chlorophenyl)-1-(2,4-dimethoxypyrimidin-5-yl)-5-(1,5-dimethyl-6-oxo-1,6-dihydropyridin-3-yl)-3-ethyl-4,5-dihydropyrrolo[3,4-c]pyrazol-6(1H)-one] | 86.9 | 166 | 456 |  |
| COc1ncc(-n2nc3c(c2C(C)C)[C@@H](c2ccc(Cl)cc2)N(c2cc(C)c4onc(C)c4c2)C3=O)c(OC)n1 [Example 62, (R)-4-(4-chlorophenyl)-2-(2,4-dimethoxypyrimidin-5-yl)-5-(3,7-dimethylbenzo[d]-isoxazol-5-yl)-3-isopropyl-4,5-dihydropyrrolo[3,4-c]pyrazol-6(2H)-one] | 58.4 | 97.7 | 316 | >10000 |
| Cc1nn(C(C)C)c2c1C(c1ccc(Cl)cc1)N(c1cc(C)c(=O)n(C)c1)C2=O (stereo not drawn) [Example 63, 4-(4-chlorophenyl)-5-(1,5-dimethyl-6-oxo-1,6-dihydropyridin-3-yl)-1-isopropyl-3-methyl-4,5-dihydropyrrolo[3,4-c]pyrazol-6(1H)-one] | 25.8 | 61.9 | 314 | >10000 |
| Cc1cc(N2C(=O)c3nn(C(C)C)c(C)c3C2c2ccc(Cl)cc2)cn(C)c1=O (stereo not drawn) [Example 64, 4-(4-chlorophenyl)-5-(1,5-dimethyl-6-oxo-1,6-dihydropyridin-3-yl)-2-isopropyl-3-methyl-4,5-dihydropyrrolo-[3,4-c]pyrazol-6(2H)-one] | 27.6 | 64.8 | 292 |  |
| Cc1c2c(nn1C(C)C)C(=O)N(c1cc(Cl)c(=O)n(C)c1)C2c1ccc(Cl)cc1 (stereo not drawn) [Example 65, 5-(5-chloro-1-methyl-6-oxo-1,6-dihydropyridin-3-yl)-4-(4-chlorophenyl)-2-isopropyl-3-methyl-4,5-dihydropyrrolo-[3,4-c]pyrazol-6(2H)-one] | 67.5 | 121 | 554 |  |
| Cc1nn(C(C)C)c2c1C(c1ccc(Cl)cc1)N(c1cc(Cl)c(=O)n(C)c1)C2=O (stereo not drawn) [Example 66, 5-(5-chloro-1-methyl-6-oxo-1,6-dihydropyridin-3-yl)-4-(4-chlorophenyl)-1-isopropyl-3-methyl-4,5-dihydropyrrolo-[3,4-c]pyrazol-6(1H)-one] | 67.7 | 126 | 908 |  |
| COc1ncc(-n2nc3c(c2C(C)C)C(c2ccc(Cl)cc2)N(c2cc(C)c4nnc(C)n4c2)C3=O)c(OC)n1 (stereo not drawn) [Example 67, 4-(4-chlorophenyl)-2-(2,4-dimethoxypyrimidin-5-yl)-5-(3,8-dimethyl-[1,2,4]triazolo-[4,3-a]pyridin-6-yl)-3-isopropyl-4,5-dihydropyrrolo-[3,4-c]pyrazol-6(2H)-one] | 8.55 | 20.3 | 47.4 |  |
| CCc1c2c(nn1C1CC1)C(=O)N(c1cc(C)c(=O)n(C)c1)C2c1ccc(Cl)cc1 (stereo not drawn) [Example 68, 4-(4-chlorophenyl)-2-cyclopropyl-5-(1,5-dimethyl-6-oxo-1,6-dihydropyridin-3-yl)-3-ethyl-4,5-dihydropyrrolo-[3,4-c]pyrazol-6(2H)-one] | 30.1 | 47.7 | 157 |  |
| CCc1nn(C2CC2)c2c1C(c1ccc(Cl)cc1)N(c1cc(C)c(=O)n(C)c1)C2=O (stereo not drawn) [Example 69, 4-(4-chlorophenyl)-1-cyclopropyl-5-(1,5-dimethyl-6-oxo-1,6-dihydropyridin-3-yl)-3-ethyl-4,5-dihydropyrrolo-[3,4-c]pyrazol-6(1H)-one] | 27.4 | 44.2 | 135 |  |
| CCc1nn(C2CC2)c2c1C(c1ccc(Cl)cc1)N(c1cc(C)c3nnc(C)n3c1)C2=O (stereo not drawn) [Example 70, 4-(4-chlorophenyl)-1-cyclopropyl-5-(3,8-dimethyl-[1,2,4]triazolo[4,3-a]pyridin-6-yl)-3-ethyl-4,5-dihydropyrrolo-[3,4-c]pyrazol-6(1H)-one] | 9.02 | 12.2 | 60.8 |  |
| COc1ncccc1-n1nc(C)c2c1C(=O)N(c1cc(C)c(=O)n(C)c1)C2c1ccc(Cl)cc1 (stereo not drawn) [Example 71, 4-(4-chlorophenyl)-5-(1,5-dimethyl-6-oxo-1,6-dihydropyridin-3-yl)-1-(2-methoxypyridin-3-yl)-3-methyl-4,5-dihydropyrrolo-[3,4-c]pyrazol-6(1H)-one] | 66.6 | 75.6 | 345 | >10000 |
| COc1ncccc1-n1nc(C)c2c1C(=O)N(c1cc(Cl)c(=O)n(C)c1)C2c1ccc(Cl)cc1 (stereo not drawn) [Example 72, 5-(5-chloro-1-methyl-6-oxo-1,6-dihydropyridin-3-yl)-4-(4-chlorophenyl)-1-(2-methoxypyridin-3-yl)-3-methyl-4,5-dihydropyrrolo[3,4-c]pyrazol-6(1H)-one] | 100 | 223 | 766 |  |
| Cc1cc(N2C(=O)c3nn(C)c(O)c3C2c2ccc(Cl)cc2)cn(C)c1=O (stereo not drawn) [Example 73, 4-(4-chlorophenyl)-5-(1,5-dimethyl-6-oxo-1,6-dihydropyridin-3-yl)-3-hydroxy-2-methyl-4,5-dihydropyrrolo[3,4-c]pyrazol-6(2H)-one] | 3020 | > 10000 | > 10000 |  |
